Data reported in patent US20260364080A1, “PYRAZOLO-PYRIMIDINONE COMPOUNDS FOR USE IN METHODS OF INHIBITING WEE1 A KINASE” (Acrivon Therapeutics, Inc., priority 2023, published 2026).

Legend:
[1] = target: T1, recombinant human Wee1A kinase (Homo sapiens, UniProt P30291); experiment: Wee1A kinase binding assay (LanthaScreen Eu time-resolved FRET); conditions: 30 nM tracer 178, 5 nM Wee1A kinase, 2 nM Eu-labeled antibody; 60 minutes at room temperature; read-out: Wee1A kinase Binding IC50
T1 construct: full length Wee1 kinase was expressed by baculovirus in insect cells; purchased Invitrogen PV3817; host or cells: insect cells (baculovirus)
Method in brief: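 Full-length, baculovirus-expressed GST-tagged Wee1A (5 nM) was mixed with 2 nM Eu-anti-GST antibody, 30 nM kinase tracer 178 and compound (1% DMSO). Buffer was 50 mM HEPES pH 7.5, 10 mM MgCl2, 1 mM EGTA, 0.01% Brij-35, incubated 60 min at room temperature. TR-FRET 665/615 nm emission ratios from duplicates were curve-fitted.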

[2] = target: T2, Myt1 kinase (recombinant PMYT-1) (Homo sapiens, UniProt Q99640); experiment: Myt1 kinase binding assay (LanthaScreen Eu Kinase Binding Assay); conditions: 3 nM tracer 178, 2.5 nM PMYT-1, 1 nM Eu-labeled antibody; read-out: Myt1 kinase Binding IC50
T2 construct: full length PMYT-1 was expressed by baculovirus in insect cells; purchased Invitrogen A30984; host or cells: insect cells (baculovirus)
T2 sequence (Q99640 1-499): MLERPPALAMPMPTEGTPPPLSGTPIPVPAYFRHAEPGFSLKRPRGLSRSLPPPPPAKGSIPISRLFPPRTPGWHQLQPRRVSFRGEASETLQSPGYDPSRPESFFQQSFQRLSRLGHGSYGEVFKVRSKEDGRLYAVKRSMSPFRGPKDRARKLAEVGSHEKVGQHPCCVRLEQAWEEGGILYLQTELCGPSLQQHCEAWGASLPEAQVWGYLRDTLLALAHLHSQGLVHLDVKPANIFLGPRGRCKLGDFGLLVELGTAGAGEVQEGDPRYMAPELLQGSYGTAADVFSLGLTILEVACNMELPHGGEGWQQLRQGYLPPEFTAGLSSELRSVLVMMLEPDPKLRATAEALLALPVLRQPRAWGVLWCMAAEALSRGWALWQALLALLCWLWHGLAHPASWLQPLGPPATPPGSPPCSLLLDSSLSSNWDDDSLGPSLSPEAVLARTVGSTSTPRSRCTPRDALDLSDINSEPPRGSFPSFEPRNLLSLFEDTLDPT
Method in brief: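 The binding affinity of compounds for Myt1 kinase was measured with a LanthaScreen Europium (Eu) Kinase Binding Assay, a time-resolved FRET format in which test compounds compete against a labeled kinase tracer, and the results were expressed as IC50 values describing compound binding to Myt1.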

[3] = target: T3, Myt1 kinase (CDK1 Thr14 phosphorylation in ACHN renal cell carcinoma cells) (Homo sapiens, UniProt Q99640); experiment: AlphaLISA assay, Myt1 kinase target engagement (phospho-CDK1 Thr14) in ACHN cells; assay type: cell-based; conditions: ACHN cells (marked *); 4 h treatment
T3 construct: pCDK1 Thr14 AlphaLISA read-out
T3 sequence (Q99640 1-499): T2 sequence (Q99640 1-499)
Protocol: Each of an ACHN renal cell carcinoma cell line (ATCC) and a DAOY medulloblastoma cell line, and an A427 lung cancer line were cultured in Minimum Essential Medium Eagle supplemented with 10% fetal calf serum (Sigma), 1% Penicillin-Streptomycin and 10 mM HEPES buffer (HyClone). Cell cultures were kept in a humidified incubator at 37 °C and 5% CO2. Cells were routinely tested for Mycoplasma contamination.
For target engagement assessment of Myt1 kinase inhibition, quantification of Cdk1 phosphorylated on threonine 14 was detected using the AlphaLISA® SureFire® Ultra™ Human Phospho-CDK1 (Thr14) assay (Perkin Elmer). DAOY or ACHN cells were seeded into tissue culture treated 96-well plates (VWR) to a density of 10,000 or 20,000 cells per well respectively. 24 h post seeding cells were treated for 4 h with compounds at concentrations ranging from 7 to 5000 nM. Cells were washed with PBS and lysed in 50 μl AlphaLISA lysis buffer before freezing at −80 C. Ten ul of the lysate was transferred to 384 well plates and incubated with AlphaLISA donor and acceptor beads according to the manufacturer's instructions. Dose response curves and EC50 values were calculated and visualized using GraphPad Prism version 9. Target engagement for Myt1 kinase can also be measured using the same AlphaLISA assay in OVCAR3 cells, an ovarian cancer cell line. NIH:OVCAR-3 (OVCAR3) cells are cultured in RPMI-1640 medium supplemented with 0.01 mg/ml insulin, 20% FBS, 1% Penicillin-Streptomycin and 10 mM HEPES buffer. 14,000 cells per well are seeded into 96 well tissue culture plates in full medium. Twenty-four hours post seeding, cells are treated with compound for 4 hours at concentrations ranging from 0.017 nM to 1000 nM.

[4] = target: T4, Wee1A kinase (CDK1 Tyr15 phosphorylation in ACHN renal cell carcinoma cells) (Homo sapiens, UniProt P30291); experiment: High-content imaging of pCdk1 Y15, Wee1A kinase target engagement in ACHN cells; assay type: cell-based; conditions: 4 h treatment, nuclear positivity for pCdk1 Y15 vs DMSO control, read-out: CDK1 Tyr15 Phosphorylation EC50
T4 construct: pCDK1 Tyr15 immunofluorescence read-out
Method in brief: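 ACHN cells exposed to compound for 4 h over 7–5,000 nM or 0.3–200 nM, then fixed and immunostained for pCDK1 Y15 with DAPI nuclear counterstain. The percentage of pCdk1 Y15 nucleus-positive cells relative to DMSO control was imaged per well; EC50 from dose-response curves.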

ACHN cells = experiment: Cell Titer Glo viability assay, ACHN cells; assay type: cell-based; conditions: Homo sapiens, 144 h, absolute EC50
Method in brief: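 Cells grown in MEM with 10% FCS were seeded at 500 (A427), 400 (ACHN) or 250 (DAOY) per well and treated the next day with compound at 17 to 10 000 nM. Viability relative to untreated control was read at 144 h by CellTiter-Glo 2.0.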

T1 sequence (P30291 whole entry): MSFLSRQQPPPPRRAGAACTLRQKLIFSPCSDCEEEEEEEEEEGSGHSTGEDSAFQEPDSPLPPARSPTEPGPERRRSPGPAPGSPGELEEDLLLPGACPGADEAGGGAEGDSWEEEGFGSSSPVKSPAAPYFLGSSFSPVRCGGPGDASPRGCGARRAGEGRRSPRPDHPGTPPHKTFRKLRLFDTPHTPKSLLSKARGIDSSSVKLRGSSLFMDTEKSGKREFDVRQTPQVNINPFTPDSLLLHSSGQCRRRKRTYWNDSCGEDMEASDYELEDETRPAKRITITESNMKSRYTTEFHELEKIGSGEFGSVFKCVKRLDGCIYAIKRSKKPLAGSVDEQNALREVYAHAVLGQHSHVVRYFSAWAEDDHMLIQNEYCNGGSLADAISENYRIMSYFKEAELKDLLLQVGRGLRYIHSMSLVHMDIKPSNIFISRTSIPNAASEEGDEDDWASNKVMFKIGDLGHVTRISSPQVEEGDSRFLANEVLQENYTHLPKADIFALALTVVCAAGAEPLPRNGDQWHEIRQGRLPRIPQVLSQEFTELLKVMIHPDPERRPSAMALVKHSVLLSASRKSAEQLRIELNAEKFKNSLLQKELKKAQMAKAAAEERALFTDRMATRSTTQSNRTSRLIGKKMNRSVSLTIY
T4 sequence (P30291 whole entry): as above

Row | SMILES | IC50 [1] [nM] | IC50 [2] [nM] | EC50 [3] [nM] | EC50 [4] [nM] | EC50 (ACHN cells) [nM]
1 | C=CCn1c(=O)c2cnc(Nc3ccc4c(cnn4C)c3)nc2n1-c1cccc(O[C@@H]2CCN(C)[C@@H](C)C2)n1 (stereo in doubt) [Compound 403, rel-2-allyl-1-(6-(((2R,4S)-1,2-dimethylpiperidin-4-yl)oxy)pyridin-2-yl)-6-((1-methyl-1H-indazol-5-yl)amino)-1,2-dihydro-3H-pyrazolo[3,4-d]pyrimidin-3-one] | < 10 | 20 to 100 | < 200 | < 100 | ≤ 100
2 | C=CCn1c(=O)c2cnc(Nc3ccc4c(cnn4C)c3)nc2n1-c1cccc(NC2CCN(C)CC2)n1 [Compound 129, 6-[(1-methyl-1H-indazol-5-yl)amino]-1-{6-[(1-methylpiperidin-4-yl)amino]pyridin-2-yl}-2-(prop-2-en-1-yl)-1H,2H,3H-pyrazolo[3,4-d]pyrimidin-3-one] | < 10 | 100 to 500 | > 1000 | < 100 | ≤ 100
3 | CCn1c(=O)c2cnc(Nc3ccc(-c4cnn(C)c4)cc3)nc2n1-c1cccc(OC2CCN(C)CC2)n1 [Compound 277, 2-ethyl-1-[6-(1-methyl-4-piperidyloxy)-2-pyridyl]-6-[p-(1-methyl-4-pyrazolyl)phenylamino]-1,2-dihydro-3H-1,2,5,7-tetraazainden-3-one] | < 10 | 20 to 100 | < 200 | < 100 | ≤ 100
4 | C=CCn1c(=O)c2cnc(Nc3ccc(N4CCOCC4)cc3)nc2n1-c1cccc(OC2CCN(C)CC2)n1 [Compound 278, 2-allyl-1-(6-((1-methylpiperidin-4-yl)oxy)pyridin-2-yl)-6-((4-morpholinophenyl)amino)-1,2-dihydro-3H-pyrazolo[3,4-d]pyrimidin-3-one] | < 10 | 20 to 100 | < 200 | < 100 | ≤ 100
5 | C=CCn1c(=O)c2cnc(Nc3ccc4c(cnn4C)c3)nc2n1-c1ccnc(OC2CCN(C)CC2)n1 [Compound 279, 2-allyl-6-((1-methyl-1H-indazol-5-yl)amino)-1-(2-((1-methylpiperidin-4-yl)oxy)pyrimidin-4-yl)-1,2-dihydro-3H-pyrazolo[3,4-d]pyrimidin-3-one] | < 10 | 20 to 100 | 200 to 500 | < 100 | ≤ 100
6 | C=CCn1c(=O)c2cnc(Nc3ccc4c(cnn4CC)c3)nc2n1-c1cccc(OC2CCNCC2)n1 [Compound 280, 2-allyl-6-((1-ethyl-1H-indazol-5-yl)amino)-1-(6-(piperidin-4-yloxy)pyridin-2-yl)-1,2-dihydro-3H-pyrazolo[3,4-d]pyrimidin-3-one] | < 10 | < 20 | 200 to 500 | < 100 | ≤ 100
7 | C=CCn1c(=O)c2cnc(Nc3ccc4c(cnn4C)c3)nc2n1-c1cccc(OC2CCN(CCC)CC2)n1 [Compound 322, 2-allyl-6-(1-methyl-1H-indazol-5-ylamino)-1-[6-(1-propyl-4-piperidyloxy)-2-pyridyl]-1,2-dihydro-3H-1,2,5,7-tetraazainden-3-one] | < 10 | 20 to 100 | 200 to 500 | < 100 | ≤ 100
8 | CN1CCC(Oc2cccc(-n3c4nc(Nc5ccc6c(ccn6C)c5)ncc4c(=O)n3C)n2)CC1 [Compound 360, 2-methyl-6-((1-methyl-1H-indol-5-yl)amino)-1-(6-((1-methylpiperidin-4-yl)oxy)pyridin-2-yl)-1,2-dihydro-3H-pyrazolo[3,4-d]pyrimidin-3-one] | < 10 | 20 to 100 | 500 to 1000 | < 100 | ≤ 100
9 | C=CCn1c(=O)c2cnc(Nc3ccc4c(ccn4C(C)=O)c3)nc2n1-c1cccc(OC2CCNCC2)n1 [Compound 384] | < 10 | 20 to 100 | > 1000 | < 100 | ≤ 100

Other lines, results leading:

Row | IC50 [1] [nM] | IC50 [2] [nM] | EC50 [3] [nM] | EC50 [4] [nM] | EC50 (ACHN cells) [nM] | SMILES
10 | < 10 | 20 to 100 | 200 to 500 | < 100 | ≤ 100 | C=CCn1c(=O)c2cnc(Nc3ccc(F)c(C)c3)nc2n1-c1cccc(OC2CCN(C)CC2)n1 [Compound 206, 6-[(4-fluoro-3-methylphenyl)amino]-1-{6-[(1-methylpiperidin-4-yl)oxy]pyridin-2-yl}-2-(prop-2-en-1-yl)-1H,2H,3H-pyrazolo[3,4-d]pyrimidin-3-one]
11 | < 10 | 20 to 100 | < 200 | < 100 | ≤ 100 | [2H]C([2H])([2H])N1CCC(Oc2cccc(-n3c4nc(Nc5ccc6c(cnn6C)c5)ncc4c(=O)n3CC=C)n2)CC1 [Compound 281, 2-allyl-6-((1-methyl-1H-indazol-5-yl)amino)-1-(6-((1-(methyl-d3)piperidin-4-yl)oxy)pyridin-2-yl)-1,2-dihydro-3H-pyrazolo[3,4-d]pyrimidin-3-one]
12 | < 10 | < 20 | < 200 | < 100 | ≤ 100 | C=CCn1c(=O)c2cnc(Nc3ccc4nn(CC)cc4c3)nc2n1-c1cccc(OC2CCN(C)CC2)n1 [Compound 282, 2-allyl-6-((2-ethyl-2H-indazol-5-yl)amino)-1-(6-((1-methylpiperidin-4-yl)oxy)pyridin-2-yl)-1,2-dihydro-3H-pyrazolo[3,4-d]pyrimidin-3-one]
13 | < 10 | 20 to 100 | 200 to 500 | < 100 | ≤ 100 | [2H]C([2H])([2H])c1cccc(Nc2ncc3c(=O)n(CC=C)n(-c4cccc(OC5CCN(C)CC5)n4)c3n2)c1 [Compound 333, 2-allyl-6-((3-(methyl-d3)phenyl)amino)-1-(6-((1-methylpiperidin-4-yl)oxy)pyridin-2-yl)-1,2-dihydro-3H-pyrazolo[3,4-d]pyrimidin-3-one]
14 | < 10 | 20 to 100 | 200 to 500 | < 100 | ≤ 100 | C=CCn1c(=O)c2cnc(Nc3ccc4c(c3)c(C)nn4C)nc2n1-c1cccc(OC2CCN(C)CC2)n1 [Compound 346, 2-allyl-6-((1,3-dimethyl-1H-indazol-5-yl)amino)-1-(6-((1-methylpiperidin-4-yl)oxy)pyridin-2-yl)-1,2-dihydro-3H-pyrazolo[3,4-d]pyrimidin-3-one]
